Measured values as given in US9510593B2, “S-benzylthiouracil compounds and methods of enhancing plant root growth” (Valent BioSciences Corporation, priority 2014, dated 2016).
“Also recorded” adds a separate entry of the source.

Columns and labels:
Assay type in all cases: in vivo
[1] = system: Maize (cultivar; Kuromochi); experiment: Maize growth promotion by seed treatment; conditions: for Percent (shoot weight, untreated control = 100) / Average weight of the shoots: 18th day after seeding; for Average weight of the shoots: control 3.8
Method: Maize seeds (cultivar; Kuromochi) were treated with Compound 1 at dose rates of 0.005 grams to 0.5 gram per 100 kilogram seeds. The seeds were sown into a soil pot (one seed/pot) and then cultivated in a growth chamber at a temperature of 27° C. and a day length of 16 hours for 18 days. On the 18th day after seeding, the fresh shoot weight of each plant was examined for 3 replicates.

rice = experiment: Rice pouch assay: growth of primary root and shoot; conditions: for Shoot Length: control 1.7
Method: Seeds were placed in germination pouches consisting of germination paper as an insert in a gas-permeable 16×14 cm plastic pouch (CYG Pouch; Mega International, St. Paul, Minn.). In pouch solution evaluation, S-Benzylthiouracil compounds or their salts were dissolved in a small volume of DMSO and added to sterile water with a maximum of 0.5% v/v DMSO at final dilution. The S-Benzylthiouracil solution was subsequently pipetted into the growth pouch, followed by the addition of seeds of the crop being tested. The pouches were arranged in a randomized complete block design in growth racks and placed in 19-liter polycarbonate food storage containers (Rubbermaid Commercial Products, Winchester, Va.). The sealed containers were held in an upright growth cabinet maintained at 25 C with a 12 hour light: 12 hour dark photoperiod. For rice, plants were harvested at 6 d, while in mungbean and corn, the plants were harvested at 4 d post sowing. Measurements were performed on the primary root and shoot of each seedling. The growth of the primary root of rice was examined in the pouch assay system. The results of the testing, presented as percent change in root length across all S-Benzylthiouracil compounds, are shown below.

[2] = system: Arabidopsis accession Columbia; experiment: Arabidopsis petri plate (agar medium) assay, root growth; conditions: 6 days after sowing, control 3.3
Method: For Arabidopsis, a solid medium was required. Typically, half-strength MS salts were dissolved in water, and 1% (w/v) BactoAgar (DIFCO) was added. Following autoclaving, sterile S-Benzylthiouracil solutions were added to medium prior to pouring 30 mL of agar medium per petri plate. Arabidopsis seeds were sown in a sterile manner, and seeds were germinated and grew on the agar surface until primary root length was measured.
Of increased importance for understanding mode of action, Arabidopsis has become the model system of choice. In Table 20, the effect of Compound 1 in growth medium on root growth of Arabidopsis accession Columbia is shown.

[3] = system: Rice (cultivar; Nipponbare); experiment: Rice growth enhancement by seed treatment under low temperature stress; parameters: Average weight of the shoots: unit not given here; conditions: for Average weight of the shoots: 4° C. for 6 days, 27th day, control 15.4
Method: Rice seeds (cultivar; Nipponbare) were treated with the Compound 1 at dose rates of 0.5 gram to 50 grams per 100 kilogram seeds. Treated rice seeds were sown and cultivated in 2-fold diluted Kimura B hydroponic solution (Plant Science 119:39-47 (1996) in a growth chamber at a temperature of 28° C. (day)/23° C. (night) and a day length of 12 hours for 10 days.
Following hydroponic cultivation for 10 days the plants were exposed to low temperature stress at 4° C. for 6 days at a day length of 12 hours in a growth chamber. After the low temperature stress treatment, the plants were transferred to 4-fold diluted Hoagland's hydroponic solution (California Agricultural Experiment Station 1950 Circular 347 pp. 34) and cultivated for […] at a temperature of 28° C. and a day length of 12 hours. On the 27th day of the sequential hydroponic cultivation, each fresh shoot weight of the plant was measured for 4 replicates.

mungbean = experiment: Mungbean pouch assay: growth of primary root and shoot; conditions: for Shoot Length / Root Length: 4 days after sowing in growth pouches; for Shoot Length: control 4.8; for Root Length: control 8.8
Method: Seeds were placed in germination pouches consisting of germination paper as an insert in a gas-permeable 16×14 cm plastic pouch (CYG Pouch; Mega International, St. Paul, Minn.). In pouch solution evaluation, S-Benzylthiouracil compounds or their salts were dissolved in a small volume of DMSO and added to sterile water with a maximum of 0.5% v/v DMSO at final dilution. The S-Benzylthiouracil solution was subsequently pipetted into the growth pouch, followed by the addition of seeds of the crop being tested. The pouches were arranged in a randomized complete block design in growth racks and placed in 19-liter polycarbonate food storage containers (Rubbermaid Commercial Products, Winchester, Va.). The sealed containers were held in an upright growth cabinet maintained at 25 C with a 12 hour light: 12 hour dark photoperiod. For rice, plants were harvested at 6 d, while in mungbean and corn, the plants were harvested at 4 d post sowing. Measurements were performed on the primary root and shoot of each seedling. The growth of the primary root of mungbean was examined in the pouch assay system. The results of the testing, presented as percent change in root length across all the free S-Benzylthiouracil compounds is shown below. The following S-Benzylthiouracil compounds have benzyl substitutions as defined in Table 11 below.

radish cv. Cherry Belle = experiment: Radish assay, continuous exposure; conditions: for Root Length / Shoot Length: 6 days; for Root Length: control 3.2; for Shoot Length: control 4.0
Source text: In order to determine if a root crop was sensitive to a S-Benzylthiouracil, we tested the effect of Compound 1 on radish cv. Cherry Belle (Table 21).

[4] = seed treatment 0.005 grams/100-kg seeds
[5] = seed treatment 0.05 grams/100-kg seeds
[6] = seed treatment 0.5 grams/100-kg seeds

Oc1ccnc(SCc2cccc(F)c2)n1 [Compound 1, S-(3-Fluorobenzyl)-2-thiouracil]
Average fresh shoot weight versus untreated control, in words ([1]; across 0.005 to 0.5 gram per 100 kilogram seeds): larger than that of the untreated control group | Percent (shoot weight, untreated control = 100) [1, 4]: 104% | Average weight of the shoots [1, 4]: 4.0 grams/plant | Percent (shoot weight, untreated control = 100) [1, 5]: 133% | Average weight of the shoots [1, 5]: 5.1 grams/plant | Percent (shoot weight, untreated control = 100) [1, 6]: 115% | Average weight of the shoots [1, 6]: 4.4 grams/plant | Root Length (rice; 10 mg/liter, 6 days after sowing, untreated control 9.67): 10.80 cm | Root Length (rice; 30 mg/liter, 6 days after sowing, untreated control 9.67): 10.34 cm | Shoot Length (rice; 7.5 ppm, 6 days after treatment): 2.2 cm | Root Length (rice; 7.5 ppm, 6 days after treatment, control 5.1): 7.8 cm | Percent Change in Primary Root Length in Rice (rice; 10 ppm (10 mg/L), benzyl ring substitutions, vs control): 19.8% | Percent Change (rice primary root growth) (rice; 10 ppm, compounds and water-soluble salts, 6 days after sowing): 19.8% | Shoot Length (rice; 30 ppm, 6 days after treatment): 2.2 cm | Root Length (rice; 30 ppm, 6 days after treatment, control 5.1): 7.3 cm | Shoot Length (rice; 100 ppm, 6 days after treatment): 1.9 cm | Root Length (rice; 100 ppm, 6 days after treatment, control 5.1): 5.2 cm | change in vivo at 10 ppm (rice; Oryza sativa, 144 h, 10 ppm (10 mg/L), benzyl ring substitutions, vs control, read-out: Percent Change in Primary Root Length in Rice): 19.8% | Effect on rice root growth, in words (rice; rice pouch assay, compared to control): greatest increases in root length compared to all of the other tested compounds; also recorded: dose-dependent increase in root length | Root Length ([2]; 0.1 ppm): 3.7 cm | Root Length ([2]; 0.25 ppm): 4.4 cm | Root Length ([2]; 0.5 ppm): 3.7 cm | Root Length ([2]; 1.0 ppm): 3.8 cm | Average weight of the shoots ([3]; 0.5 grams/100-kg seeds): 19.7 | Percent (shoot weight, untreated control = 100) ([3]; 0.5 grams/100-kg seeds, low temperature stress): 128% | Average weight of the shoots ([3]; 5 grams/100-kg seeds): 39.8 | Percent (shoot weight, untreated control = 100) ([3]; 5 grams/100-kg seeds, low temperature stress): 258% | Average weight of the shoots ([3]; 50 grams/100-kg seeds): 34.8 | Percent (shoot weight, untreated control = 100) ([3]; 50 grams/100-kg seeds, low temperature stress): 226% | Average fresh shoot weight versus untreated control, in words ([3]; across 0.5 to 50 grams per 100 kilogram seeds, low temperature stress): larger than that of the untreated control | Shoot Length (mungbean; 1 ppm): 5.5 cm | Root Length (mungbean; 1 ppm): 9.9 cm | Percent Change in Primary Root Length of Mungbean (mungbean; 10 ppm (10 mg/L), benzyl ring substitutions): 10.4% | Shoot Length (mungbean; 10 ppm): 5.2 cm | Root Length (mungbean; 10 ppm): 10.6 cm | Shoot Length (mungbean; 25 ppm): 4.7 cm | Root Length (mungbean; 25 ppm): 9.5 cm | Shoot Length (mungbean; 50 ppm): 3.9 cm | Root Length (mungbean; 50 ppm): 5.8 cm | change in vivo at 10 ppm (mungbean; 96 h, 10 ppm (10 mg/L), benzyl ring substitutions, read-out: Percent Change in Primary Root Length of Mungbean): 10.4% | Effect on mungbean root (and shoot) growth, in words (mungbean; mungbean pouch assay): only a moderate increase in root growth | Root Length (radish cv. Cherry Belle; 1 ppm): 4.1 cm | Shoot Length (radish cv. Cherry Belle; 1 ppm): 4.9 cm | Root Length (radish cv. Cherry Belle; 10 ppm): 3.0 cm | Shoot Length (radish cv. Cherry Belle; 10 ppm): 3.3 cm | Effect on radish root and shoot growth, in words (radish cv. Cherry Belle; continuous exposure): increased root and shoot growth
